How the values were obtained:
[1] = tested on: nicotinic receptors, NIC-evoked [^3H]DA release from rat striatal slices; experiment: Inhibition of nicotine-evoked [^3H]dopamine release from superfused rat striatal slices; format: cell-based; conditions: 1 h, 100 nM analog superfused 60 minutes prior to NIC (10 μM)
Method: Rat striatal slices (500 μm thickness, 6-8 mg wet weight) were incubated for 30 minutes in Krebs buffer (118 mM NaCl, 4.7 mM KCl, 1.2 mM MgCl2, 1.0 mM NaH2PO4, 1.3 mM CaCl2, 11.1 mM glucose, 25 mM NaHCO3, 0.11 mM L-ascorbic acid, and 0.004 mM disodium EDTA at pH 7.4, and saturated with 95% O2/5% CO2) in a metabolic shaker at 34° C. Slices were rinsed with 15 mL of fresh buffer, and were incubated for an additional 30 minutes in fresh buffer containing 0.1 μM [^3H]dopamine (DA; 6 slices/3 mL). Subsequently, slices were rinsed with 15 mL of fresh buffer and transferred to a glass superfusion chamber. Slices were superfused (1.0 mL/min) for 60 minutes with Krebs buffer containing nomifensine (10 μM) and pargyline (10 μM), and maintained at 34° C., pH 7.4, with continual aeration (95% O2/5% CO2). Two five minute samples (5 mL each) were collected to determine basal outflow of [^3H]DA. The test compounds of Formula (I) were added to the superfusion buffer after the collection of the second sample, and were maintained in the buffer until 12 consecutive five minute samples were collected. Subsequently, S-(−)-nicotine (10 μM) was added to the buffer, and an additional 12 consecutive five minute samples were collected. At the end of the experiment, each slice was solubilized, and the [^3H]content of the tissue determined.
Radioactivity in the superfusate and tissue samples was determined by liquid scintillation spectroscopy. Fractional release of tritium collected in each sample was divided by the total tritium present in the tissue at the time of sample collection, and the fractional release of tritium collected was expressed as a percentage of total tritium. Basal [^3H]outflow was calculated from the average of the tritium collected in the two five minute samples just before addition of a test compound of Formula (I). The sum of the increase in collected tritium resulting from either exposure to a test compound of Formula (I), or exposure to S(−) nicotine in the absence and presence of a test compound of Formula (I) equaled total [^3H]overflow. [^3H]Overflow was calculated by subtracting the [^3H]outflow during an equivalent period of pre-stimulation from the values in samples collected during and after drug exposure. Inasmuch as the radio-labeled compounds were not separated and identified, the tritium collected in superfusate is referred to as either [^3H]outflow or [^3H]overflow, rather than as [^3H]DA. [^3H]Overflow primarily represents [^3H]DA in the presence of nomifensine and pargyline in the superfusion buffer.
The quaternary analogs of Formula (I) were also evaluated for their ability to inhibit NIC-evoked [^3H]DA release. In these experiments, the striatal slices were superfused for 60 minutes with 100 nM concentration of the quaternary analogs prior to NIC (10 μM) exposure. Antagonist activity was evaluated by comparing the NIC-evoked [^3H]overflow in the absence and presence of the analogs. The relative order of potency of the quaternary analogs of Formula (I) for inhibition of NIC-evoked [^3H]DA release from rat striatal slices is illustrated in Table 1.
^aData are % inhibition at 100 nM concentration of the mono quaternary analogs for at least 1-3 independent experiments; with the exception of when a Ki value in μM is provided, in which case a full concentration effect was evaluated. Specific binding in the [^3H]NIC binding assay is calculated as the difference between the total binding of 3 nM [^3H]NIC and nonspecific binding in the presence of 10 μM cold nicotine. Specific binding for the [^3H]MLA binding assay is calculated as the difference between the total binding of 2.5 nM [^3H]MLA to the receptors alone and its nonspecific binding in the presence of 1 μM cold MLA. Analog-induced inhibition of nicotine-evoked [^3H]DA release is calculated as a percent of that in the absence of the mono quaternary ammonium analog. ND indicates not determined.

[2] = biological target: T1, Rat Striatal Nicotinic Receptors ([^3H]MLA binding) (Rattus norvegicus, UniProt Q05941); experiment: Inhibition of [^3H]methyllycaconitine (MLA) binding to brain membranes; conditions: for inhibition at 0.1 µM: % inhibition at 100 nM analog, 2.5 nM [^3H]MLA, nonspecific 1 μM MLA (footnote)
T1 construct: Whole brain, excluding cortex and cerebellum, was homogenized; from tissue; host or cells: rat brain membranes (whole brain excluding cortex and cerebellum)
T1 sequence (Q05941 23-502): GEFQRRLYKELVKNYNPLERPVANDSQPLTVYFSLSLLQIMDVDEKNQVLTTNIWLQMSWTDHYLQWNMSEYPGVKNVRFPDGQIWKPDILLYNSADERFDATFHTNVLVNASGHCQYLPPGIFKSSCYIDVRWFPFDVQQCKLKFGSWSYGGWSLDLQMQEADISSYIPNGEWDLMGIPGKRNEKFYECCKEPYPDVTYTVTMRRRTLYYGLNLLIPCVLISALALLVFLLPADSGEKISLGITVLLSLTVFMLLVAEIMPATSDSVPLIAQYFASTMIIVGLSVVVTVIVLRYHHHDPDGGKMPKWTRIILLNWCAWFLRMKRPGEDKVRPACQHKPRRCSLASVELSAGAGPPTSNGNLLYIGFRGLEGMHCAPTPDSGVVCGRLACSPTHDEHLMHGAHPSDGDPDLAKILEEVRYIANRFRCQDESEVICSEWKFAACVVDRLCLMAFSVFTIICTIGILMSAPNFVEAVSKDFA
Method: (§1) Test compounds of Formula (I), representing the mono quaternary nicotine analogs of the present invention, were evaluated to determine the effect of a test compound on nicotine-binding and methyllycaconitine-binding mediated by nicotine acetylcholine receptors.
Homogenate was centrifuged (25,000 g, 15 min, 4° C.). Pellets were resuspended in 20 volumes of buffer and incubated at 37° C., for 10 min, cooled to 4° C. and centrifuged (25,000 g, 15 min, 4° C.). Pellets were resuspended and centrifuged using the same conditions. […] Upon use, final pellets were resuspended in ˜20 volumes of assay buffer. […] A control sample absent test compounds of Formula (I) was also prepared. […] Incubations proceeded for 60 min at a room temperature using 96-well plates, and were terminated by harvesting on Unifilter-96 GF/B filter plates presoaked in 0.5% polyethylenimine, using a Packard FilterMate harvester. After washing 5 times with 350 μl ice-cold assay buffer, the filter plates were dried (60 min, 4° C.), bottom-sealed, and filled with Packard's MicroScint 20 cocktail (40 μl/well). After 60 min, filter plates were top-sealed, and levels of radioactivity were determined using a Packard TopCount. Protein concentrations were determined using the Bradford dye-binding procedure using bovine serum albumin as a standard protein. […]

[3] = biological target: T2, Rat Striatal Nicotinic Receptors ([^3H]NIC binding) (Rattus norvegicus, UniProt P09483+P12390); experiment: Inhibition of [^3H]nicotine binding to brain membranes; conditions: 3 nM [^3H]NIC; for inhibition at 0.1 µM: % inhibition at 100 nM analog, nonspecific 10 μM nicotine
T2 construct: Whole brain, excluding cortex and cerebellum, was homogenized; from tissue; host or cells: rat brain membranes (whole brain excluding cortex and cerebellum)
T2 sequence (P09483 31-630): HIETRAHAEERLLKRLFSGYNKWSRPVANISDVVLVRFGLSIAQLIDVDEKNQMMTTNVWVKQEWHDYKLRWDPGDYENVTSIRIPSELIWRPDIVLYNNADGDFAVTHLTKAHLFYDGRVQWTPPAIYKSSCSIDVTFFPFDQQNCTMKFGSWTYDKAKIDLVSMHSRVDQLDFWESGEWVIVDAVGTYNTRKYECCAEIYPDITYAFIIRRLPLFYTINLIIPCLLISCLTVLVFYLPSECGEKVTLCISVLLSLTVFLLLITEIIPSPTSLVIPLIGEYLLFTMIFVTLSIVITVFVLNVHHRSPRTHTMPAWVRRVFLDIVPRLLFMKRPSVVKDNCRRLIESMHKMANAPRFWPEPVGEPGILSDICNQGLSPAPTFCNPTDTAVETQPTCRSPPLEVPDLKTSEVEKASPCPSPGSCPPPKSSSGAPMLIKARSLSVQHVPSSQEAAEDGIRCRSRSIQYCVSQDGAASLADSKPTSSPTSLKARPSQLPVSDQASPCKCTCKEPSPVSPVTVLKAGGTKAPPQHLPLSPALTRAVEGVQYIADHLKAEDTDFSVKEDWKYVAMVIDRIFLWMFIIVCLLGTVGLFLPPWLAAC
T2 sequence (P12390 25-500): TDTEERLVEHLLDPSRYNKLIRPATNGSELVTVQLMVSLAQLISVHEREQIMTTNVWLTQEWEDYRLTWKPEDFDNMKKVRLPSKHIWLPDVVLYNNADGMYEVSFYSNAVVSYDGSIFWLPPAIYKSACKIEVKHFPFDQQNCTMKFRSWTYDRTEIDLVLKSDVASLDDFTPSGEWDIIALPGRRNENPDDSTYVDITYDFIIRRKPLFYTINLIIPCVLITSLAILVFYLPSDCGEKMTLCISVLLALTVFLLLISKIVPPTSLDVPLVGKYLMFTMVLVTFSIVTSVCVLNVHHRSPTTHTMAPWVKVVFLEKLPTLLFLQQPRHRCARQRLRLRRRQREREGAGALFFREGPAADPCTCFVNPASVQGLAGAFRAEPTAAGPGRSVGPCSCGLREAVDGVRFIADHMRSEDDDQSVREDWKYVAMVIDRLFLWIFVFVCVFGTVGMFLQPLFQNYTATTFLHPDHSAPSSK
Method: as §1
Homogenate was centrifuged (25,000 g, 15 min, 4° C.). Pellets were resuspended in 20 volumes of buffer and incubated at 37° C., for 10 min, cooled to 4° C. and centrifuged (25,000 g, 15 min, 4° C.). Pellets were resuspended and centrifuged using the same conditions. […] Upon use, final pellets were resuspended in ˜20 volumes of assay buffer. Samples (250 μl) contained 100-140 μg of membrane protein, 3 nM [^3H]nicotine or 3 nM [^3H]methyllycaconitine (MLA), and test compounds of Formula (I) (100 nM) in assay buffer containing 50 mM Tris. A control sample absent test compounds of Formula (I) was also prepared. In the [^3H]nicotine-binding assay and [^3H]MLA-binding assay, nonspecific-binding was determined in the presence of 10 μM nicotine and 10 μM MLA, respectively. Incubations proceeded for 60 min at a room temperature using 96-well plates, and were terminated by harvesting on Unifilter-96 GF/B filter plates presoaked in 0.5% polyethylenimine, using a Packard FilterMate harvester. After washing 5 times with 350 μl ice-cold assay buffer, the filter plates were dried (60 min, 4° C.), bottom-sealed, and filled with Packard's MicroScint 20 cocktail (40 μl/well). After 60 min, filter plates were top-sealed, and levels of radioactivity were determined using a Packard TopCount. Protein concentrations were determined using the Bradford dye-binding procedure using bovine serum albumin as a standard protein.
Specific binding in the [^3H]NIC binding assay is calculated as the difference between the total binding of 3 nM [^3H]NIC and nonspecific binding in the presence of 10 μM cold nicotine. […] Analog-induced inhibition of nicotine-evoked [^3H]DA release is calculated as a percent of that in the absence of the mono quaternary ammonium analog. ND indicates not determined.

Row | SMILES | inhibition at 0.1 µM [1] | inhibition at 0.1 µM [2] | inhibition at 0.1 µM [3] | Ki ([2]; full concentration effect, 2.5 nM [^3H]MLA (footnote)) | Ki ([3]; full concentration effect)
1 | Cc1cccc[n+]1CCCC#Cc1ccc(-c2ccccc2)cc1 | 45% | 7% | 2% |  | 
2 | Cc1cc(C)c[n+](CCCC#Cc2ccc(-c3ccccc3)cc2)c1 | 51% | 3% | 8% |  | 
3 | Cc1cc[n+](CCCC#Cc2ccc(-c3ccccc3)cc2)cc1 | 40% | 3% | 0% |  | 
4 | c1cncc(CCCCCCCCCCCCC[n+]2ccc3c(c2)CCCC3)c1 | 0% |  |  | 7.2 µM | > 100 µM
5 | CCCCc1ccc(CCCC[n+]2ccc(C)cc2C)cc1 | 19% | 0% | 6% |  | 

Reference: patent US8846937B2, “Mono quaternary ammonium salts and methods for modulating neuronal nicotinic acetylcholine receptors” (University of Kentucky Research Foundation, priority 2006, dated 2014)
